Test results published in PubChem BioAssay AID488801 (NMMLSC, 2010).
The source made the active and inactive calls.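 The calls were made as follows: active = EC50 at or below 33 microM; inactive = the rest.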

molecular target: Ammonium transporter MEP2 (Saccharomyces cerevisiae (strain ATCC 204508 / S288c)) (UniProt P41948); test: MEP2-GFP expression modulation in yeast, dose response, flow cytometry, KU SAR set, S. cerevisiae (AID 488801); details: flow cytometry MCF, 3 h
Sequence (P41948 whole entry, looked up): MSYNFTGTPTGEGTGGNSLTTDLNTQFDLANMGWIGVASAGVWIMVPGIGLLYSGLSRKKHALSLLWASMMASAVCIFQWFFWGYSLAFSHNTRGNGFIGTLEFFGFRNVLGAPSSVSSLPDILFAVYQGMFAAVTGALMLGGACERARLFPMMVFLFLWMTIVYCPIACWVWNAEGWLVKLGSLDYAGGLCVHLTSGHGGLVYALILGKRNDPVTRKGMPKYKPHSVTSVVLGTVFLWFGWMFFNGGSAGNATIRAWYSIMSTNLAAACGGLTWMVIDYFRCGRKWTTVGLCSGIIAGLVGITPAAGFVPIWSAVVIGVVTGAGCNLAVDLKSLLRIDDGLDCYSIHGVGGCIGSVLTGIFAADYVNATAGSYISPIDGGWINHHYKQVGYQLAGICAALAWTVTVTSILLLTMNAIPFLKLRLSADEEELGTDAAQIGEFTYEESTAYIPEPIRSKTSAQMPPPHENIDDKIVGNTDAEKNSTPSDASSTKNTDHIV

SMILES	EC50
O=C(Oc1ccnc2cc(Cl)ccc12)N1CCCCCC1	3.97 µM
CNc1nc(N)c([N+](=O)[O-])c(NCC2CCCO2)n1 (stereo unspecified)	inactive
Cc1cc(C(=O)Nc2nc(-c3ccccn3)cs2)ccc1[N+](=O)[O-]	inactive
Cc1ccc(C(c2cc(Cl)c3cccnc3c2O)N2CCN(C)CC2)cc1 (stereo unspecified)	inactive
Nc1cc(Nc2cccc(F)c2)nc(NCc2ccccc2)n1	inactive
O=C(Nc1nc(-c2ccccn2)cs1)C1COc2ccccc2O1 (stereo unspecified)	inactive
O=C(Oc1c(Cl)cc(Cl)c2cccnc12)c1ccco1	inactive
Cc1ccc(/C=C2/C(=O)ON=C2c2ccccc2)o1	inactive
C/C(=N\NC(=O)c1ccc(C(C)(C)C)cc1)c1ccccn1	inactive
Nc1cc(Oc2cccc(Cl)c2)nc(NCc2ccccc2)n1	inactive
O=C(Oc1c(Cl)cc(Cl)c2cccnc12)c1cccc([N+](=O)[O-])c1	inactive
COc1ccc([N+](=O)[O-])c(S(=O)(=O)c2ccccc2)n1	inactive
CNc1nc(N)c([N+](=O)[O-])c(Nc2cccc(Cl)c2)n1	2.72 µM
CCN(CC)C(=O)Oc1ccnc2cc(Cl)ccc12	inactive
CNc1nc(N)c([N+](=O)[O-])c(Nc2cccc(F)c2)n1	15.8 µM
O=C(OCC(=O)N1CCN(C(=O)c2ccco2)CC1)c1cc(-c2cccc(Br)c2)nc2ccccc12	inactive
Cc1ccc(S(=O)(=O)c2ncccc2[N+](=O)[O-])cc1	inactive
CSC1=NS(=O)(=O)c2c(C)nn(C)c2S1	inactive
CN1CCN(C(c2ccc(C(F)(F)F)cc2)c2ccc3cccnc3c2O)CC1 (stereo unspecified)	inactive
O=C(Nc1nc(-c2ccccn2)cs1)c1cc2ccccc2o1	inactive
C/C(=N\NC(=O)c1cccc(Br)c1)c1ccccn1	inactive
